Values of other authors as cited in patent US20150231081A1, “DELAYED RELEASE POSACONAZOLE TABLETS” (CADILA HEALTHCARE LIMITED, priority 2014, published 2015).
Like-named read-outs stand apart in the source and are kept apart here.

solubility (environments where the pH is about pH 6.4 or more basic): less than 1 microgram/mL
solubility (in stomach pH): approximately 0.8 mg/mL
Compound: CC[C@@H]([C@H](C)O)n1ncn(-c2ccc(N3CCN(c4ccc(OC[C@@H]5CO[C@@](Cn6cncn6)(c6ccc(F)cc6F)C5)cc4)CC3)cc2)c1=O [Posaconazole free base, 4-[4-[4-[4-[[(3R,5R)-5-(2,4-difluorophenyl)tetrahydro-5-(1H-1,2,4-triazol-1-ylmethyl)-3-furanyl]methoxy]phenyl]-1-piperazinyl]phenyl]-2-[(1S,2S)-1-ethyl-2-hydroxypropyl]-2,4-dihydro-3H-1,2,4-triazol-3-one]
